Assay results taken from ChEMBL document CHEMBL5614400, “Emerging therapeutics: The imidazo[1,2-b]pyridazine scaffold as a novel drug candidate for eumycetoma, a neglected tropical disease” (Eur J Med Chem, 2024).
pIC50: −log10 of the molar value. In brackets after ≈: the same amount, converted by molar mass. One block for each compound: values may come before it. Activity calls are given as the source filed them. The calls are words filed in the database; no cut-off is given here.

Legend:
Madurella mycetomatis [1] = assay: Antifungal activity against Madurella mycetomatis MM55 at 100 uM by XTT assay; type: functional, organism-based
Madurella mycetomatis [2] = assay: Antifungal activity against Madurella mycetomatis MM55 at 25 uM by XTT assay; type: functional, organism-based
Madurella mycetomatis [3] = assay: Antifungal activity against Madurella mycetomatis MM55 by XTT assay; type: functional, organism-based; details: Madurella mycetomatis, MM55
Madurella mycetomatis [4] = assay: Antifungal activity against Madurella mycetomatis Peru72012 by XTT assay; type: functional
Madurella mycetomatis [5] = assay: Antifungal activity against Madurella mycetomatis I1 by XTT assay; type: functional
Madurella mycetomatis [6] = assay: Antifungal activity against Madurella mycetomatis CBS247.48 by XTT assay; type: functional
Madurella mycetomatis [7] = assay: Antifungal activity against Madurella mycetomatis I3 by XTT assay; type: functional
Madurella mycetomatis [8] = assay: Antifungal activity against Madurella mycetomatis I11 by XTT assay; type: functional
[9] = Cytotoxicity against mouse NIH3T3 cells incubated for 5 days by MTT assay; type: toxicity, cell-based
Madurella mycetomatis [10] = assay: Antifungal activity against Madurella mycetomatis AL1 by XTT assay; type: functional
[11] = Selectivity index, ratio of IC50 for mouse NIH3T3 cells to IC50 for Madurella mycetomatis MM55; type: toxicity; details: read-out: Ratio IC50
Madurella mycetomatis [12] = assay: Antifungal activity against Madurella mycetomatis SO1 by XTT assay; type: functional
Madurella mycetomatis [13] = assay: Antifungal activity against Madurella mycetomatis MM50 by XTT assay; type: functional
Madurella mycetomatis [14] = assay: Antifungal activity against Madurella mycetomatis P1 by XTT assay; type: functional

SMILES: CN1CCN(c2cc(-c3ccccc3)c3nc(-c4ccc(F)cc4)cn3n2)CC1
- Activity (Madurella mycetomatis [1]): inactive
- Activity (Madurella mycetomatis [2]): inactive

SMILES: CN1CCN(c2cc(-c3ccoc3)c3nc(-c4ccc(F)cc4)cn3n2)CC1
- Activity (Madurella mycetomatis [1]): Active
- Activity (Madurella mycetomatis [2]): inactive

SMILES: CN1CCN(c2cc(-c3cccc4[nH]ccc34)c3nc(-c4ccc(F)cc4)cn3n2)CC1
- Activity (Madurella mycetomatis [1]): Active
- Activity (Madurella mycetomatis [2]): Active

SMILES: CN1CCN(c2cc(-c3cccc4[nH]ccc34)c3nc(-c4ccccc4)cn3n2)CC1
- Activity (Madurella mycetomatis [1]): Active
- Activity (Madurella mycetomatis [2]): Active

SMILES: CN1CCN(c2cc(-c3ccsc3)c3nc(-c4ccc(F)cc4)cn3n2)CC1
- Activity (Madurella mycetomatis [1]): Active
- Activity (Madurella mycetomatis [2]): Active

SMILES: CN1CCN(c2cc(-c3cccnc3)c3nc(-c4ccc(F)cc4)cn3n2)CC1
- pIC50 (Madurella mycetomatis [3]): < 4.80
- Activity (Madurella mycetomatis [1]): Active
- Activity (Madurella mycetomatis [2]): Active

SMILES: CN1CCN(c2cc(-c3cnn(C)c3)c3nc(-c4ccc(F)cc4)cn3n2)CC1
- Activity (Madurella mycetomatis [1]): Active
- Activity (Madurella mycetomatis [2]): Active

SMILES: CN1CCN(c2cc(-c3ccnn3C)c3nc(-c4ccc(F)cc4)cn3n2)CC1
- Activity (Madurella mycetomatis [1]): Active
- Activity (Madurella mycetomatis [2]): inactive

SMILES: CN1CCN(c2cc(-c3ccncc3)c3nc(-c4ccc(F)cc4)cn3n2)CC1
- Activity (Madurella mycetomatis [1]): Active
- Activity (Madurella mycetomatis [2]): inactive

SMILES: CN1CCN(c2cc(-c3cccnc3)c3nc(-c4cccc(F)c4)cn3n2)CC1
- pIC50 (Madurella mycetomatis [3]): 4.93
- Activity (Madurella mycetomatis [1]): Active
- Activity (Madurella mycetomatis [2]): Active

- MIC (Madurella mycetomatis [4]): 4 µM (≈ 1.95 µg/mL)
- MIC (Madurella mycetomatis [5]): 4 µM (≈ 1.95 µg/mL)
- MIC (Madurella mycetomatis [6]): 2 µM (≈ 0.975 µg/mL)
- MIC (Madurella mycetomatis [3]): 8 µM (≈ 3.9 µg/mL)
- MIC (Madurella mycetomatis [7]): 4 µM (≈ 1.95 µg/mL)
- MIC (Madurella mycetomatis [8]): 4 µM (≈ 1.95 µg/mL)
- MIC (Madurella mycetomatis [10]): 4 µM (≈ 1.95 µg/mL)
- MIC (Madurella mycetomatis [12]): 4 µM (≈ 1.95 µg/mL)
- MIC (Madurella mycetomatis [13]): 4 µM (≈ 1.95 µg/mL)
- MIC (Madurella mycetomatis [14]): 4 µM (≈ 1.95 µg/mL)
SMILES: CN1CCN(c2cc(-c3cnc(N4CCN(C)CC4)nc3)c3nc(-c4cccc(F)c4)cn3n2)CC1
- pIC50 (Madurella mycetomatis [3]): 5.33
- IC50 at 5 days [9]: 10.5 µM
- selectivity ratio [11]: 5.5

SMILES: CN1CCN(c2cc(Br)c3nc(-c4ccc(F)cc4)cn3n2)CC1
- Activity (Madurella mycetomatis [1]): inactive
- Activity (Madurella mycetomatis [2]): inactive

SMILES: CN1CCN(c2cc(-c3cccnc3)c3nc(-c4ccccc4F)cn3n2)CC1
- pIC50 (Madurella mycetomatis [3]): 4.94
- Activity (Madurella mycetomatis [1]): Active
- Activity (Madurella mycetomatis [2]): Active

- MIC (Madurella mycetomatis [4]): 0.5 µM (≈ 0.353 µg/mL)
- MIC (Madurella mycetomatis [5]): 8 µM (≈ 5.65 µg/mL)
- MIC (Madurella mycetomatis [6]): 2 µM (≈ 1.41 µg/mL)
- MIC (Madurella mycetomatis [3]): 0.5 µM (≈ 0.353 µg/mL)
- MIC (Madurella mycetomatis [7]): 1 µM (≈ 0.706 µg/mL)
- MIC (Madurella mycetomatis [8]): 0.5 µM (≈ 0.353 µg/mL)
- MIC (Madurella mycetomatis [10]): 0.06 µM (≈ 0.0423 µg/mL)
- MIC (Madurella mycetomatis [12]): 0.25 µM (≈ 0.176 µg/mL)
- MIC (Madurella mycetomatis [13]): 1 µM (≈ 0.706 µg/mL)
- MIC (Madurella mycetomatis [14]): 0.25 µM (≈ 0.176 µg/mL)
SMILES: CCC(C)n1ncn(-c2ccc(N3CCN(c4ccc(OCC5COC(Cn6cncn6)(c6ccc(Cl)cc6Cl)O5)cc4)CC3)cc2)c1=O (stereo unspecified) [ITRACONAZOLE]
- pIC50 (Madurella mycetomatis [3]): 5.96
- IC50 at 5 days [9]: 13.7 µM
- selectivity ratio [11]: 1.4

- MIC (Madurella mycetomatis [4]): 8 µM (≈ 3.15 µg/mL)
- MIC (Madurella mycetomatis [5]): 8 µM (≈ 3.15 µg/mL)
- MIC (Madurella mycetomatis [6]): 8 µM (≈ 3.15 µg/mL)
- MIC (Madurella mycetomatis [3]): 8 µM (≈ 3.15 µg/mL)
- MIC (Madurella mycetomatis [7]): 8 µM (≈ 3.15 µg/mL)
- MIC (Madurella mycetomatis [8]): 8 µM (≈ 3.15 µg/mL)
- MIC (Madurella mycetomatis [10]): 8 µM (≈ 3.15 µg/mL)
- MIC (Madurella mycetomatis [12]): 8 µM (≈ 3.15 µg/mL)
- MIC (Madurella mycetomatis [13]): 8 µM (≈ 3.15 µg/mL)
- MIC (Madurella mycetomatis [14]): 8 µM (≈ 3.15 µg/mL)
SMILES: CN1CCN(c2cc(-c3ccsc3)c3nc(-c4cccc(F)c4)cn3n2)CC1
- pIC50 (Madurella mycetomatis [3]): 5.68
- IC50 at 5 days [9]: 11.9 µM
- selectivity ratio [11]: 2.5
